ChEMBL document CHEMBL3817775, “Kinetic and Structural Insights into the Mechanism of Binding of Sulfonamides to Human Carbonic Anhydrase by Computational and Experimental Studies” (J Med Chem, 2016)

Legend:
Carbonic anhydrase 2 [1] = target: T1, Carbonic anhydrase 2 (Homo sapiens, UniProt P00918); test: Binding affinity to GST-fused human carbonic anhydrase-2 expressed in Escherichia coli BL21 codon plus cells assessed as dissociation constant by SPR method
Carbonic anhydrase 2 [2] = target: T1, Carbonic anhydrase 2; test: Binding affinity to GST-fused human carbonic anhydrase-2 expressed in Escherichia coli BL21 codon plus cells assessed as steady state dissociation constant by SPR method

Row | SMILES | Kd (Carbonic anhydrase 2 [1]) [µM] | Kd (Carbonic anhydrase 2 [2]) [µM]
1 | CCCc1ccc(S(N)(=O)=O)cc1 | 57.8 | 60.6
2 | CCc1ccc(S(N)(=O)=O)cc1 | 98.3 | 125
